Measurements taken from patent US6632665B1, “Human gene encoding 3′-5′ exonuclease” (Wake Forest University, priority 1999, dated 2003).

How the values were obtained:
HL-60 cells [1] = assay: intracellular araCTP quantified by HPLC in 6-MP treated cells; type: cell-based; conditions: cells treated with 6-MP up to twelve hours, harvested one hour after addition of araC
Description: The increased incorporation of araC into the DNA was not the result of increased accumulation of araC in the 6-MP treated cells. Cells were treated with 6-MP for varying times for up to twelve hours followed by incubation with […]. At time points up to twelve hours, cells were treated with araC and harvested one hour after addition of araC. The nucleotides were then separated using HPLC, and intracellular araCTP was quantified.
(§1) Logarithmically growing cultures of HL-60 cells are incubated with 6-MP for varying times. The cultures are divided into two groups. The first group is treated with 1 μM ^3H-araC for 1 hour to measure araC in DNA. The second group is treated with ^3H-thymidine and 1 μM unlabeled araC for 1 hour to measure total DNA synthesis. Cells are pelleted, washed with PBS, and ^3H-araC or ^3H-thymidine in acid insoluble material is determined by scintillation counting. To measure araCTP in HL-60 cells, 6-MP treated samples are incubated with 1 μM ^3H-araC. Cells are pelleted and washed with PBS. The acid soluble nucleotides are collected and separated by HPLC (Partisil 10 SAX, Whatman). The fraction containing ^3HaraCTP is quantified by scintillation counting.

murine leukemia cells = murine leukemia cells treated for twelve hours with 6-MP; cited from earlier work
HL-60 cells [2] = assay: cell killing by growth curves and clonogenic assays of treated cells; type: cell-based; conditions: 6-MP pretreatment plus araC
HL-60 cells [3] = assay: intracellular accumulation of TIMP by HPLC; type: cell-based; conditions: HL-60 cells pretreated with 50 or 100 μM 6-MP
Description: (§2) HL-60 cells were incubated with 6-mercaptopurine (6-MP) to allow intracellular levels of thioinosine monophosphate (TIMP) to accumulate. […] Cytoplasmic 6-MP is converted to an active nucleotide metabolite TIMP by the action of hypoxanthine phosphoribosyltransferase (HPRT). […] Intracellular accumulation of TIMP was determined by HPLC [Zimm, et al., Cancer Res. 45:4156-4161 (1985)]. Upon addition of araC, the amount of araC incorporated into DNA increased and total DNA synthesis decreased in cells pretreated with 6-MP relative to untreated cells. At peak intracellular levels of TIMP, araC incorporation into DNA relative to total DNA synthesis was 20-fold greater in the 6-MP treated cells.

HL-60 cells [4] = assay: araC incorporation into DNA and total DNA synthesis in 6-MP pretreated HL-60 cells; type: cell-based
Description: as §2, §1

[5] = test system: exonuclease activity specifically associated with DNA polymerase δ; conditions: Lee, et al. Biochemistry 19:215-219 (1980); cited from earlier work
30 kDa exonuclease = target: T1, 30 kDa exonuclease (Homo sapiens, UniProt Q9NSU2); assay: in vitro enzyme inhibition of the 30 kDa 3'-5' exonuclease; type: biochemical; conditions: 30 kDa exonuclease purified from myeloblastic leukemia cells
T1 construct: endogenous in cells; host or cells: human myeloblastic leukemia cells (myeloblasts)
T1 sequence (Q9NSU2 1-314): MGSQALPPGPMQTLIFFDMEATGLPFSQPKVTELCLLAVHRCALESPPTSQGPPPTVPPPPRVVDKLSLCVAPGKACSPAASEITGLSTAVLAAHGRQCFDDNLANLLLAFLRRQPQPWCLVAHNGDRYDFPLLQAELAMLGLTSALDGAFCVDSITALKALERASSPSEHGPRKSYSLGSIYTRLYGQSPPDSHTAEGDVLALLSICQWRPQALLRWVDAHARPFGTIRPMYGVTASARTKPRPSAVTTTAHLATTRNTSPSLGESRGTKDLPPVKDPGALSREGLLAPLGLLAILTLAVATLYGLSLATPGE
Description: In order to assess the effect of intracellular TIMP that contributed to increased araC incorporation, exonuclease activity was partially purified from myeloblastic leukemia cells and in vitro enzyme inhibition studies ware carried out with TIMP. The majority of the cellular exonuclease activity was found in a band migrating on SDS-PAGE with a predicted molecular weight of 30 kDa.
Inhibition studies were also carried out with the purified 30 kD exonuclease and either TIMP or dGMP.
Useful methods in the practice of this example include the following: DNA pol δ may be purified from human myeloblasts using the methods of Syvaoja et al. (Proc. Natl. Acad. Sci., USA 87:6664-6668, 1990) through step 5. The specific activity of the DNA pol δ preparation is preferably about 3,500 units/mg. A unit of DNA pol δ catalyzes the incorporation of 1 nmol of total nucleotide per hour at 37° C. using 100 μM poly(dAdT) as template and reaction conditions as described by Lewis et al. (Biochemistry 33:14620-14624, 1994). […]
To measure the 3′-5′ exonuclease activity, a 23 mer is labeled with ^32P at the 5′ position and used in reactions as ssDNA. […] Samples are dried, resuspended in 5 μl 95% formamide, and analyzed by electrophoresis through 15% polyacrylamide sequencing gels. Radiolabeled bands are visualized and quantified by phosphorimagery (Molecular Dynamics). […]

[6] = test system: 30 kDa enzyme with 3'-5' exonuclease activity; assay: removal of 3' terminal araC from template primer by the 30 kDa exonuclease; type: biochemical, human, bovine; conditions: araC at the 3' terminus of the template primer
Description: For protein purification from bovine thymus, an additional step using phenyl SUPEROSE was employed. In order to detect exonuclease activity in the cell extract, a biochemical assay was developed using DNA polymerase a and an oligonucleotide template primer with an araC analog at the 3′ terminus. In this assay, incorporation of radiolabeled nucleotides into the araC-template primer by the polymerase first requires that the araC analog be removed by a 3′-5′ exonuclease.

[7] = test system: 32P-labeled 23 nucleotide oligomer; assay: exonuclease activity of protein extracts of transformed BL21/DE3 cells; type: biochemical; conditions: protein extract of BL21/DE3 cells, IPTG induced
Description: To measure the 3′-5′ exonuclease activity, a 23 mer is labeled with ^32P at the 5′ position and used in reactions as ssDNA. Reaction mixtures (10 μl) are prepared containing 20 mM Tris-HCl, pH 7.5, 10 mM MgCl2, 2 mM DTT, 100 μg/mL BSA, 100 nM 23 mer, and 1 μl of the appropriate enzyme dilution. Incubation is 20 minutes at 37° C., and reactions are stopped by addition of 30 μl 95% ethanol. Samples are dried, resuspended in 5 μl 95% formamide, and analyzed by electrophoresis through 15% polyacrylamide sequencing gels. Radiolabeled bands are visualized and quantified by phosphorimagery (Molecular Dynamics). One unit of exonuclease is the amount of enzyme needed to degrade 1 pmol of 3′ termini in 1 min at 37° C.
The pTREX1h/T7 plasmid was electroporated into BL21/DE3 cells, which were grown at 23° C. to a density of OD595 0.3. Isopropylthiogalactopyranoside (IPTG) was added to induce overexpression and incubation of the cells was continued overnight. Protein extracts were prepared from the cells and enzyme activity assayed using a ^32P-labeled 23 nucleotide oligomer.
Template DNA was the mouse EST 480859. PCR was carried out as described for TREX1h and the resulting amplification product was subcloned as for TREX1h. The resulting expression plasmid was designated pTREX2m/T7 and expression of the encoded gene was carried out as described for TREX1h. […]

[8] = HL-60 cells pretreated with 6-MP relative to untreated cells, upon addition of araC

Sc1ncnc2nc[nH]c12 [6-MP, 6-mercaptopurine]
variation of intracellular araCTP levels during the time course (HL-60 cells [1]): less than two-fold | intracellular level of TIMP (murine leukemia cells): approximately 180 μM | cell killing (HL-60 cells [2]): increase in cell killing | time of peak intracellular TIMP concentration (HL-60 cells [3]): approximately twelve | amount of araC incorporated into DNA (HL-60 cells [4]; [8]): increased | total DNA synthesis (HL-60 cells [4]; [8]): decreased | araC incorporation into DNA relative to total DNA synthesis, 6-MP treated vs untreated cells (HL-60 cells [4]; HL-60 cells pretreated with 6-MP, at peak intracellular levels of TIMP, then araC): 20 fold

O=P(O)(O)OC[C@H]1O[C@@H](n2cnc3c(S)ncnc32)[C@H](O)[C@@H]1O [TIMP, thioinosine monophosphate]
inhibition of DNA polymerase δ associated exonuclease activity [5]: inhibit exonuclease activity | Ki (30 kDa exonuclease): 17 µM

Nc1ccn([C@@H]2O[C@H](CO)[C@@H](O)[C@@H]2O)c(=O)n1 [araC, 1-β-D-arabinofuranosylcytosine]
apparent rate of araC removal by the exonuclease [6]: approximately the same rate as the rate of deoxynucleotide monophosphate removal

Nc1nc2c(ncn2[C@H]2C[C@H](O)[C@@H](COP(=O)(O)O)O2)c(=O)[nH]1 [dGMP]
Ki (30 kDa exonuclease): 56 µM

B1: TREX1h: human 3'-5' exonuclease polypeptide, SEQ ID NO:2, expressed from pTREX1h/T7 (protein)
chain: MGSQALPPGPMQTLIFFDMEATGLPFSQPKVTELCLLAVHRCALESPPTSQGPPPTVPPPPRVVDKLSLCVAPGKACSPAASEITGLSTAVLAAHGRQCFDDNLANLLLAFLRRQPQPWCLVAHNGDRYDFPLLQAELAMLGLTSALDGAFCVDSITALKALERASSPSEHGPRKSYSLGSIYTRLYGQSPPDSHTAEGDVLALLSICQWRPQALLRWVDAHARPFGTIRPMYGVTASARTKPRPSAVTTTAHLATTRNTSPSLGESRGTKDLPPVKDPGALSREGLLAPLGLLAILTLAVATLYGLSLATPGE
modifications: HOMO SAPIENS
exonuclease activity versus control cells with parental vector only [7]: 30 fold

B2: TREX2m: murine 3'-5' exonuclease polypeptide, SEQ ID NO:32, expressed from pTREX2m/T7 (protein, listed as Mus musculus)
chain: MSEPPRAETFVFLDLEATGLPNMDPEIAEISLFAVHRSSLENPERDDSGSLVLPRVLDKLTLCMCPERPFTAKASEITGLSSESLMHCGKAGFNGAVVRTLQGFLSRQEGPICLVAHNGFDYDFPLLCTELQRLGAHLPQDTVCLDTLPALRGLDRAHSHGTRAQGRKSYSLASLFHRYFQAEPSAAHSAEGDVHTLLLIFLHRAPELLAWADEQARSWAHIEPMYVPPDGPSLEA
exonuclease activity versus control cells with parental vector only [7]: 30 fold
